pIC50: −log10 of the molar value.
Legend:
[1] = organic phase relative to aqueous phase; ref Leung and Baillie ([1986]); cited from earlier work
[2] = Pharmacokinetic parameters for; format: in vivo, Wistar rat; conditions: metabolite after single i.v. 40 mg/kg (R,S)-Ket
[3] = rat, ref Leung and Baillie ([1986]), cited from earlier work; for increased spontaneous locomotor activity: postanesthetic recovery phase
[4] = molecular target: α7-nicotinic acetylcholine receptor; conditions: ref Moaddel et al. [2013]; cited from earlier work
[5] = after i.v. (R,S)-Ket; ref Cohen et al. [1973]; cited from earlier work
Incubation of = format: in vitro ADME, Wistar rat; conditions: 0.1, 1 and 10 μmol/L; 1 mg/mL S9, NADPH; up to 120 min; data not shown
[6] = Brain tissue concentrations of Ket and; conditions: for ratio of brain tissue concentration: plasma concentration 10 min / Brain tissue concentration 10 min / ratio of brain tissue concentration: plasma concentration 20 min / Brain tissue concentration 20 min / ratio of brain tissue concentration: plasma concentration 60 min / Brain tissue concentration 60 min: after i.v. 20 mg/kg (R)-Ket; for Brain tissue concentration 10 min / Brain tissue concentration 20 min / Brain tissue concentration 60 min: n = 3, ±SD
[7] = Plasma concentrations of Ket and; format: in vivo, Wistar rat; conditions: after i.v. 20 mg/kg (R)-Ket, n = 3, ±SD

Row | SMILES | increased spontaneous locomotor activity [3] | duration of anesthesia [3] | Brain tissue concentration 10 min [6] | Brain tissue concentration 20 min [6] | Brain tissue concentration 60 min [6] | Plasma concentration 10 min [7] | Plasma concentration 20 min [7] | Plasma concentration 60 min [7] | other results
1 | N[C@@]1(c2ccccc2Cl)CCC[C@@H](O)C1=O [(2S,6S;2R,6R)-HNK, (2S,6S;2R,6R)-hydroxynorketamine] | no effect | no effect |  |  |  |  |  |  | relative hydrophobicity from partition coefficients [1]: significantly less lipophilic; t1/2 [2]: 9.5 ± 5.4 h; pIC50 [4]: > 7.00
2 | CNC1(c2ccccc2Cl)CCCCC1=O (racemic) [(R,S)-Ket, ketamine, reference compound] | 25 min | 7 min |  |  |  |  |  |  | time to peak brain tissue concentrations [5]: less than 1 min; relative hydrophobicity from partition coefficients [1]: slightly more hydrophobic; Ket metabolites formed in incubates (Incubation of): did not contain any known Ket metabolites
3 | NC1(c2ccccc2Cl)CCC=CC1=O (racemic) [(R,S)-DHNK, (R,S)-dehydronorketamine] |  |  |  |  |  |  |  |  | pIC50 [4]: > 7.00
4 | CN[C@@]1(c2ccccc2Cl)CCCCC1=O [(R)-Ket, (R)-ketamine, reference compound] |  |  | 16,365 ± 1931 ng/g tissue | 8715 ± 4433 ng/g tissue | 5224 ± 3391 ng/g tissue | 3430 ± 400 ng/mL | 1420 ± 103 ng/mL | 498 ± 116 ng/mL | ratio of brain tissue concentration: plasma concentration 10 min [6]: (4.8); ratio of brain tissue concentration: plasma concentration 20 min [6]: (6.1); ratio of brain tissue concentration: plasma concentration 60 min [6]: (10.5)
5 | N[C@@]1(c2ccccc2Cl)CCC[C@@H](O)C1=O [(2R,6R)-HNK, (2R,6R)-hydroxynorketamine] |  |  | 274 ± 47 ng/g tissue | 191 ± 50 ng/g tissue | 156 ± 34 ng/g tissue | 345 ± 115 ng/mL | 316 ± 58 ng/mL | 200 ± 24 ng/mL | 
6 | N[C@@]1(c2ccccc2Cl)CCC[C@H](O)C1=O [(2R,6S)-HNK] |  |  | 141 ± 20 ng/g tissue | 78 ± 37 ng/g tissue | 48 ± 28 ng/g tissue | 222 ± 29 ng/mL | 96 ± 6 ng/mL | 35 ± 6 ng/mL | ratio of brain tissue concentration: plasma concentration 10 min [6]: (0.6); ratio of brain tissue concentration: plasma concentration 20 min [6]: (0.8); ratio of brain tissue concentration: plasma concentration 60 min [6]: (1.4); average ratio of brain tissue concentration to plasma concentration ([6]; after i.v. (S)-Ket or (R)-Ket, respectively, over the first 20 min post administration): ~1
7 | NC1(c2ccccc2Cl)CCCCC1=O (racemic) [(R,S)-norKet, (R,S)-norketamine] | 7 min | 3 min |  |  |  |  |  |  | 

— PMC4492732 (Pharmacology Research & Perspectives, 2015)
